The values below are quoted from earlier work in patent publication US9180152B2, “Method for treating psoriasis” (NIKKEN SOHONSHA CORPORATION, priority 2009, dated 2015).

The data set has as its system Psoriasis. To be noted: well-tolerated oral doses.

With `CC1=C(/C=C/C(C)=C\C=C\C(C)=C\C(=O)O)C(C)(C)CCC1` [9-cis-retinoic acid], the response of psoriasis result is “did not respond”.
